For test [1], the target named is T1, USP21 (Homo sapiens, UniProt Q9UK80).
T1 sequence (Q9UK80 1-565): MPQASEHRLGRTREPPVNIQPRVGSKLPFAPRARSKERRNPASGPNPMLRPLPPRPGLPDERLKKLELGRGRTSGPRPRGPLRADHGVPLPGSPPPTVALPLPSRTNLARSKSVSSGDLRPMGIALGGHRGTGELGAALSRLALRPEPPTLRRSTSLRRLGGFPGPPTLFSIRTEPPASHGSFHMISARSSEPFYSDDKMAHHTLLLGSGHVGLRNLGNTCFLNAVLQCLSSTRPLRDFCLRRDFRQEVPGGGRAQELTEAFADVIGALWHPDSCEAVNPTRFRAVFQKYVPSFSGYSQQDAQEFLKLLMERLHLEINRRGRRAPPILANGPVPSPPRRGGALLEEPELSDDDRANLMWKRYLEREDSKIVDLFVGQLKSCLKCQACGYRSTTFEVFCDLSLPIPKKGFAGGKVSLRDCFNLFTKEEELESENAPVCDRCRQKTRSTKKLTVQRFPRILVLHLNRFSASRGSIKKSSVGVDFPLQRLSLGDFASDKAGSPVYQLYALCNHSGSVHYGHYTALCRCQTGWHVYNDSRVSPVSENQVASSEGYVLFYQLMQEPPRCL
Kind of test: biochemical.

Test [2] has as its target T2, FLAG-UCHL1 (Homo sapiens, UniProt P09936).
T2 construct: expressed in transfected cells
T2 sequence (P09936 1-223): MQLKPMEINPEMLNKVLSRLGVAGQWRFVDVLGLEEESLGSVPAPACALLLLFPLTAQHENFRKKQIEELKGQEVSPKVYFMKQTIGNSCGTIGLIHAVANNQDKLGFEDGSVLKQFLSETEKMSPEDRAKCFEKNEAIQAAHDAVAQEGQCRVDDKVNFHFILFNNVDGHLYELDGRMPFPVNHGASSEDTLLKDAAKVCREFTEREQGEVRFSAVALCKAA
Kind of test: HTRF in-cell UCHL1 activity assay with HA-Ub-VME in Cal51 cells. It is filed as cell-based. Conditions: Cal51 cells stably expressing FLAG-UCHL1, 1 h, HA-Ub-VME 100 nM. A general note: TR-FRET usually uses a lanthanide donor and a delayed reading to cut background.

In test [3] the target is T3, OTUB2 (Homo sapiens, UniProt Q96DC9).
T3 sequence (Q96DC9 1-234): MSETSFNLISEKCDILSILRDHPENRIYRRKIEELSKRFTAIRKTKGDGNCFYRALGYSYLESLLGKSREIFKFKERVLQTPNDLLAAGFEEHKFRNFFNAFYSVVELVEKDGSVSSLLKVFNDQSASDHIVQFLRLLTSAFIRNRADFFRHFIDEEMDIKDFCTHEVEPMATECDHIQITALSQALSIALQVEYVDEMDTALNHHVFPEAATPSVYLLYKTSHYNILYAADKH
The test can be described thus: biochemical.

For test [4], the target named is T4, USP8 (Homo sapiens, UniProt P40818).
T4 sequence (P40818 1-1118): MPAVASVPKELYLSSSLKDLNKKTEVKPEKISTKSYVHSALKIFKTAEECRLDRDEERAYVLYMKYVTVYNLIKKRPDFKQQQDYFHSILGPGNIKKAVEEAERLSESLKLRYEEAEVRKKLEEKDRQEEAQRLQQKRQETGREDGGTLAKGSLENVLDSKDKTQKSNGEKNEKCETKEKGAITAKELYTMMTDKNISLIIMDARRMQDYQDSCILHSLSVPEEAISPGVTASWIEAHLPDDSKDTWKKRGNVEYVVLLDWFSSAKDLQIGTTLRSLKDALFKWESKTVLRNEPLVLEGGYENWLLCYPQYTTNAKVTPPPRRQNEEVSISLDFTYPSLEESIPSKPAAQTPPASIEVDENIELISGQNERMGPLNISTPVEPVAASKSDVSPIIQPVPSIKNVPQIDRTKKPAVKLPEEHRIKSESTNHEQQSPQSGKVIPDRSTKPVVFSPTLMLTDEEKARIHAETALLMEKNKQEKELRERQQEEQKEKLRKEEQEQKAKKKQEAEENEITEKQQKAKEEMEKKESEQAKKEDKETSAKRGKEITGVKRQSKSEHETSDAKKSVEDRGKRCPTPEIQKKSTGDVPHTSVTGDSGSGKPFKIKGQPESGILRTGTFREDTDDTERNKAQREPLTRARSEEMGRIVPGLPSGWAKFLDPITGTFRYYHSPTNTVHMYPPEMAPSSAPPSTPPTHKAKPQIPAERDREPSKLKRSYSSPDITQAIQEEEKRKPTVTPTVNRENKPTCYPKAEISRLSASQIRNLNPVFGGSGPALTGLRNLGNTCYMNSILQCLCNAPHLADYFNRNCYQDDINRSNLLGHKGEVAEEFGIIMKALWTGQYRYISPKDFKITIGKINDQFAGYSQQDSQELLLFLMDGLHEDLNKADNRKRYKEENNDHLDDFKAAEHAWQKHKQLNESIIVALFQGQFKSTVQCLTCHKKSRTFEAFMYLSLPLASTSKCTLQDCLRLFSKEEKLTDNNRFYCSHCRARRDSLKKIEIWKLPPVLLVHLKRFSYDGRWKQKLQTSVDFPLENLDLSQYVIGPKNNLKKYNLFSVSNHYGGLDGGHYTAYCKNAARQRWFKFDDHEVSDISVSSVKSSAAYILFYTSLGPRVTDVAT
Kind of test: biochemical.

We go through four compounds from PMC7366380, “Discovery of a Potent and Selective Covalent Inhibitor and Activity-Based Probe for the Deubiquitylating Enzyme UCHL1, with Antifibrotic Activity” (Journal of the American Chemical Society, 2020).

The structures appear in SMILES notation.

In the case of `N#CN1CCC[C@H]1C(=O)N1CCc2c(-c3c[nH]c4ncccc34)cccc21` [Compound 1], the IC50 is > 10 µM in test [1], 0.82 µM in test [2], > 10 µM in test [3] and > 10 µM in test [4].

For the compound `C#Cc1cnc2[nH]cc(-c3cccc4c3CCN4C(=O)[C@@H]3CCCN3C#N)c2c1` [Compound 2], in test [2], 0.11 µM corresponded to half-maximal inhibition (IC50).

On to `N#CN1CCC[C@@H]1C(=O)N1CCc2c(-c3c[nH]c4ncccc34)cccc21` [Compound 3], for which the IC50 in test [1] is > 10 µM; in test [2], 23 µM; in test [3], > 10 µM; in test [4], > 10 µM.

`CC(=O)O/N=C1\C(=O)N(Cc2cc(Cl)ccc2Cl)c2ccc(Cl)cc21` [LDN-57444, reference compound]: the IC50 in test [1], in test [3] and in test [4] was > 10 µM in each case.

The term IC50 denotes the concentration at which inhibition is half-maximal.
